Biological target: T1, TEC (Homo sapiens, UniProt P42680)
T1 construct: endogenous in cells; host or cells: THP-1
T1 sequence (P42680 1-631): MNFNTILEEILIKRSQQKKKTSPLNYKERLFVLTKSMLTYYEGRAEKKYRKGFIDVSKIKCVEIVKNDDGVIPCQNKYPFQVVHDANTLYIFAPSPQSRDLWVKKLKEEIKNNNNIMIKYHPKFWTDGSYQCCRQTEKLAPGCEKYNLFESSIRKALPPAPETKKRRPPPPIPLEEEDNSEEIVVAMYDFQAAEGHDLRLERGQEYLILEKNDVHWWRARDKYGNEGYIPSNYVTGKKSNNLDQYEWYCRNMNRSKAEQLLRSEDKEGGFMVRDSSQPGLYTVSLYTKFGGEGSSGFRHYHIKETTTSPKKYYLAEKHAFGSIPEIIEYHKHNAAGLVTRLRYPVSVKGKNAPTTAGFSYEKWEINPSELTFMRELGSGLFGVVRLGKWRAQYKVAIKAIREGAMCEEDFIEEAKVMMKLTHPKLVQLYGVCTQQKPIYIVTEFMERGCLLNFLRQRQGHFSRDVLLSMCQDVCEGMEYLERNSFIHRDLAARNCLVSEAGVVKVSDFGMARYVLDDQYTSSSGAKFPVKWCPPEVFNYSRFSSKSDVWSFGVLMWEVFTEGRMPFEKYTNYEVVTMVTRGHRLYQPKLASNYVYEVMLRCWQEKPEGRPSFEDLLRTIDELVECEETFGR
Assay: Expression proteomics in THP-1 cells: TEC protein level
Type: cell-based
Experimental: THP-1 cells were seeded at a concentration of 3×10^6 cells in T175 flasks with 60 mL growth medium (RPMI1640+10% FBS). […] of a 10× compound solution prepared in growth medium (DMSO), CEREBLON_PROTAC) was added and the cells were treated for the indicated time points (6 or 24 h) at 37° C., 5% CO2. For harvesting the cells were collected into falcon tubes on ice, centrifuged and washed twice in cold PBS (Life technologies). After the last washing step the supernatant was removed and the pellets were snap-frozen in liquid N2 and stored at −80° C. and lysed in 2% SDS for 3 min at 95° C. in a thermomixer (Thermo Fisher Scientific), followed by digestion of DNA with Benzonase at 37° C. for 1.5 h. Lysate was cleared by centrifugation an protein concentration in supernatant was determined by BCA assay.
Leukemia 25, 89-100 (2011).
Samples were dried in vacuo and resuspended in 0.05% trifluoroacetic acid in water. Of the sample, 50% was injected into an Ultimate3000 nanoRLSC (Dionex, Sunnyvale, Calif.) coupled to a Q Exactive HF (Thermo Fisher Scientific). Peptides were trapped on a 5 mm×300 μm C18 column (Pepmap100, 5 μm, 300 Å, Thermo Fisher Scientific) in water with 0.05% TFA at 60° C. Separation was performed on custom 50 cm×[…] (ID) reversed-phase columns (Reprosil) at 55° C. Gradient elution was performed from 2% acetonitrile to 40% acetonitrile in 0.1% formic acid and 3.5% DMSO over 2 hours. Samples were online injected into Q-Exactive HF mass spectrometers operating with a data-dependent top 10 method. MS spectra were acquired by using 60.000 resolution and an ion target of 3×10^6. Higher energy collisional dissociation (HCD) scans were performed with 35% NCE at 30.000 resolution (at m/z 200), and the ion target settings was set to 2×10^5 so as to avoid coalescence (Werner, T. et al. Ion Coalescence of Neutron Encoded TMT 10-Plex Reporter Ions. Anal. Chem. 86, 3594-3601 (2014).
The first search was performed with 30 parts per million mass tolerance for peptide precursors and 30 mD (HCD) mass tolerance for fragment ions followed by a final search using recalibrated data with a 10 parts per million mass tolerance for peptide precursors and 20 mD (HCD) mass tolerance for fragment ions. Carbamidomethylation of cysteine residues and TMT modification of lysine residues were set as fixed modifications and methionine oxidation, and N-terminal acetylation of proteins and TMT modification of peptide N-termini were set as variable modifications. […]
Nat Biotech 29, 255-265 (2011). this measure is referred to as ion area Savitski, M. M. et al. Delayed Fragmentation and Optimized Isolation Width Settings for Improvement of Protein Identification and Accuracy of Isobaric Mass Tag Quantification on Orbitrap-Type Mass Spectrometers. […]

CNC(=O)c1ccccc1Nc1nc(Nc2ccc(N3CCN(CCOCCOCCOCCOCC(=O)Nc4cccc5c4CN(C4CCC(=O)NC4=O)C5=O)CC3)cc2)ncc1Cl.O=CO (stereo not shown) [CEREBLON_PROTAC, 14-(4-(4-((5-Chloro-4-((2-(methylcarbamoyl)phenyl)amino)pyrimidin-2-yl)amino)phenyl)piperazin-1-yl)-N-(2-(2,6-dioxopiperidin-3-yl)-1-oxoisoindolin-4-yl)-3,6,9,12-tetraoxatetradecan-1-amide formate]
log2 rel. fc. to vehicle control (24 h 0.1 μM, n = 1): −1.83 | log2 rel. fc. to vehicle control (24 h 0.1 μM, n = 2): −2.38 | log2 rel. fc. to vehicle control (24 h 1 μM, n = 1): −1.74 | log2 rel. fc. to vehicle control (24 h 1 μM, n = 2): −1.94

Source: US20190210996A1, “NOVEL COMPOUNDS” (GLAXOSMITHKLINE INTELLECTUAL PROPERTY DEVELOPMENT LIMITED, priority 2016, published 2019)
